The values below come from patent publication US8835378B2, “Multi-domain amphipathic helical peptides and methods of their use” (The United States of America as represented by the …, priority 2004, dated 2014).

One data set deals with ABCA1 cells. Description: LDH release from ABCA1 cells. It counts as cell-based, human. The settings on record: 40 μg/ml for 18 hours. The procedure: (§1) Cell fixation was performed by a 10 minute treatment with 3% paraformaldehyde in phosphate buffered saline (PBS), followed by three washes with blank media. Lactate dehydrogenase (LDH) release from cells into the media was measured enzymatically (Roche Diagnostics, Indianapolis, Ind.) and expressed, after subtraction of LDH released into blank media, as the percentage of total cell LDH. Total cell LDH was determined after cell solubilization with 1% Triton X-100.
(§2) Incubation of the cells with L-37pA and D-37pA at the maximum concentration and time used for the efflux studies (40 μg/ml for 18 hours) did, however, consistently result in the release of a small amount of LDH from both cell lines (control cells: L-37pA (6.1%±0.2), D-37pA (6.6%±0.1); ABCA1 cells: L-37pA (4.3%±0.04), D-37pA (5.7%±0.1)).
On the technique in general: LDH in the medium is a marker of cell lysis.

A further data set relates to control cells. Description: LDH release from control cells. It counts as cell-based, human. Particulars: 40 μg/ml for 18 hours. The procedure: as §1, §2

Where a SMILES comes first, the peptide text is derived from it. [ ]: non-standard residue; d: D form.

Consider `CC(C)C[C@@H](NC(=O)[C@@H](Cc1c[nH]c2ccccc12)NC(=O)[C@H](N)CC(=O)O)C(=O)N[C@H](CCCCN)C(=O)N[C@H](C)C(=O)N[C@H](Cc1ccccc1)C(=O)N[C@H](Cc1ccc(O)cc1)C(=O)N[C@H](CC(=O)O)C(=O)N[C@H](CCCCN)C(=O)N[C@@H](C(=O)N[C@H](C)C(=O)N[C@H](CCC(=O)O)C(=O)N[C@H](CCCCN)C(=O)N[C@H](CC(C)C)C(=O)N[C@H](CCCCN)C(=O)N[C@H](CCC(=O)O)C(=O)N[C@H](C)C(=O)N[C@H](Cc1ccccc1)C(=O)N1CCC[C@@H]1C(=O)N[C@H](CC(=O)O)C(=O)N[C@H](Cc1c[nH]c2ccccc12)C(=O)N[C@H](CC(C)C)C(=O)N[C@H](CCCCN)C(=O)N[C@H](C)C(=O)N[C@H](Cc1ccccc1)C(=O)N[C@H](Cc1ccc(O)cc1)C(=O)N[C@H](CC(=O)O)C(=O)N[C@H](CCCCN)C(=O)N[C@@H](C(=O)N[C@H](C)C(=O)N[C@H](CCC(=O)O)C(=O)N[C@H](CCCCN)C(=O)N[C@H](CC(C)C)C(=O)N[C@H](CCCCN)C(=O)N[C@H](CCC(=O)O)C(=O)N[C@H](C)C(=O)N[C@H](Cc1ccccc1)C(=O)O)C(C)C)C(C)C` [D-37pA] (H-[dD][dW][dL][dK][dA][dF][dY][dD][dK][dV][dA][dE][dK][dL][dK][dE][dA][dF][dP][dD][dW][dL][dK][dA][dF][dY][dD][dK][dV][dA][dE][dK][dL][dK][dE][dA][dF]-OH; N-terminus and C-terminus assumed), for which the “LDH release from ABCA1 cells (percentage of total cell LDH)” value in the data set on ABCA1 cells is listed as 5.7%±0.1. Moreover, the “LDH release from control cells (percentage of total cell LDH)” value with control cells is 6.6%±0.1.

For `CC(C)C[C@H](NC(=O)[C@H](Cc1c[nH]c2ccccc12)NC(=O)[C@H](CC(=O)O)NC(=O)[C@@H]1CCCN1C(=O)[C@H](Cc1ccccc1)NC(=O)[C@H](C)NC(=O)[C@H](CCC(=O)O)NC(=O)[C@H](CCCCN)NC(=O)[C@H](CC(C)C)NC(=O)[C@H](CCCCN)NC(=O)[C@H](CCC(=O)O)NC(=O)[C@H](C)NC(=O)[C@@H](NC(=O)[C@H](CCCCN)NC(=O)[C@H](CC(=O)O)NC(=O)[C@H](Cc1ccc(O)cc1)NC(=O)[C@H](Cc1ccccc1)NC(=O)[C@H](C)NC(=O)[C@H](CCCCN)NC(=O)[C@H](CC(C)C)NC(=O)[C@H](Cc1c[nH]c2ccccc12)NC(=O)[C@@H](N)CC(=O)O)C(C)C)C(=O)N[C@@H](CCCCN)C(=O)N[C@@H](C)C(=O)N[C@@H](Cc1ccccc1)C(=O)N[C@@H](Cc1ccc(O)cc1)C(=O)N[C@@H](CC(=O)O)C(=O)N[C@@H](CCCCN)C(=O)N[C@H](C(=O)N[C@@H](C)C(=O)N[C@@H](CCC(=O)O)C(=O)N[C@@H](CCCCN)C(=O)N[C@@H](CC(C)C)C(=O)N[C@@H](CCCCN)C(=O)N[C@@H](CCC(=O)O)C(=O)N[C@@H](C)C(=O)N[C@@H](Cc1ccccc1)C(=O)O)C(C)C` [L-37pA] (H-DWLKAFYDKVAEKLKEAFPDWLKAFYDKVAEKLKEAF-OH; N-terminus and C-terminus assumed), in the data set on ABCA1 cells, the “LDH release from ABCA1 cells (percentage of total cell LDH)” value is 4.3%±0.04. The “LDH release from control cells (percentage of total cell LDH)” value in the data set on control cells is recorded as 6.1%±0.2.
